Laboratory results reported in article PMC12005767 (Advanced Science, 2025).

How the values were obtained:
HDAC11 = molecular target: T1, HDAC11 (Homo sapiens, UniProt Q96DB2); assay: HDAC11 inhibition fluorescence assay (ETDKmyr substrate); assay type: biochemical; details: for IC50: mean ± SEM
T1 construct: The HDAC11 enzyme was a full‐length human recombinant HDAC enzyme sourced from BPS Bioscience; purchased BPS Bioscience
T1 sequence (Q96DB2 1-347): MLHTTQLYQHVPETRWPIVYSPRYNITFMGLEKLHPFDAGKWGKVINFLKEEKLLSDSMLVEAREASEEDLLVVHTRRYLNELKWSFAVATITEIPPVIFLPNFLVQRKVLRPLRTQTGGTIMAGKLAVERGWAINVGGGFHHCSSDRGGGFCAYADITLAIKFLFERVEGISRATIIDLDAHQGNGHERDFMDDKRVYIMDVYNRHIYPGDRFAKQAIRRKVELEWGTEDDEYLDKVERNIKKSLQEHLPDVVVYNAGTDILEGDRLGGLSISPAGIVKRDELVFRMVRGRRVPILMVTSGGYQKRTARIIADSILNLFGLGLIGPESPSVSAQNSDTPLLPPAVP
Protocol: The HDAC11 enzyme was a full‐length human recombinant HDAC enzyme sourced from BPS Bioscience. In detail, a total of 20 µL of recombinant HDAC11 enzyme solution (working concentration = 1 × 10^−9 M) was combined with varying concentrations of the test compound (20 µL) in a 96‐well black plate. The mixture was then incubated at a temperature of 30 °C for a duration of 1 h. Subsequently, 10 µL of the specific fluorogenic substrate (ETDKacyl‐Kmyr) was added. Following 2 h incubation at 30 °C, the catalytic reaction was ceased by adding 10 µL of a developer solution consisting of 2 mg mL^−1 trypsin and 5 × 10^−6 M trichostatin A (TSA). After a standing period of 6 h, the fluorescence intensity was assessed using a microplate reader at excitation and emission wavelengths of 360 and 460 nm, respectively. The inhibition ratios were calculated based on the fluorescence intensity readings of the test wells compared to the control wells. GraphPad Prism 8.0 software was employed to generate IC 50 curves and determine the corresponding IC 50 values utilizing the “log(inhibitor) versus normalized response‐variable slope” function.

HDAC1 [1] = molecular target: T2, HDAC1 (Homo sapiens, UniProt Q13547); assay: In vitro HDACs inhibition fluorescence assay, HDAC1; assay type: biochemical; details: mean ± SEM
T2 construct: purchased BPS Bioscience
Protocol: (§1) In Vitro HDACs Inhibition Fluorescence Assay: For the inhibitory activity against HDAC1‐10, enzymes were also procured from BPS Bioscience. The in vitro […] inhibition assays were conducted following the established method described previously.^[ [45] ^] The working concentrations of HDAC1‐10 were 4 × 10^−9 M. The fluorogenic substrate of HDAC1, 2, 3, and 6 was Boc‐Lys (acetyl)‐AMC, and the substrate of HDAC4, 5, 7, 8, 9, and 10 was Boc‐Lys (trifluoroacetyl) AMC. The developer solution consists of 30 mg mL^−1 trypsin and 5 × 10^−6 M TSA. A standing period of 30 min was sufficient before assessing the fluorescence intensity.

HDAC3 = molecular target: T3, HDAC3 (Homo sapiens, UniProt O15379); assay: In vitro HDACs inhibition fluorescence assay, HDAC3; assay type: biochemical; details: mean ± SEM
T3 construct: purchased BPS Bioscience
Protocol: as §1

HDAC1 [2] = molecular target: T2, HDAC1; design: method as in PMID 27754681; details: prior research; cited from earlier work

T3 sequence (O15379 whole entry): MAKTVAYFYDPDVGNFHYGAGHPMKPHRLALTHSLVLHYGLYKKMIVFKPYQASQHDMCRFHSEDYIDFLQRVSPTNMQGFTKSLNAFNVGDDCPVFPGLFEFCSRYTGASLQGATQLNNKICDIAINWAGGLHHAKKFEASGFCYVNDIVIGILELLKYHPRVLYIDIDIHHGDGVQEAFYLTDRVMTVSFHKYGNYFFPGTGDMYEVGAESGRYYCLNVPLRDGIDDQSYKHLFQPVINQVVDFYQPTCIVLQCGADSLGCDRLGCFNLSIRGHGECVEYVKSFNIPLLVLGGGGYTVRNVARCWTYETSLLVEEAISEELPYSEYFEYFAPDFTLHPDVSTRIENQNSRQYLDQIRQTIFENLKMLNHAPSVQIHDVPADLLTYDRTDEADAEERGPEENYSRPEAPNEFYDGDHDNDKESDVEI
T3 sequence (Q9Y618 395-489 partner limits assumed): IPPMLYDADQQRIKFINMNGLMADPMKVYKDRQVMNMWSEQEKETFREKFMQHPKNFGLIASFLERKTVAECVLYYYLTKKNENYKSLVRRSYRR
T2 sequence (Q13547 whole entry): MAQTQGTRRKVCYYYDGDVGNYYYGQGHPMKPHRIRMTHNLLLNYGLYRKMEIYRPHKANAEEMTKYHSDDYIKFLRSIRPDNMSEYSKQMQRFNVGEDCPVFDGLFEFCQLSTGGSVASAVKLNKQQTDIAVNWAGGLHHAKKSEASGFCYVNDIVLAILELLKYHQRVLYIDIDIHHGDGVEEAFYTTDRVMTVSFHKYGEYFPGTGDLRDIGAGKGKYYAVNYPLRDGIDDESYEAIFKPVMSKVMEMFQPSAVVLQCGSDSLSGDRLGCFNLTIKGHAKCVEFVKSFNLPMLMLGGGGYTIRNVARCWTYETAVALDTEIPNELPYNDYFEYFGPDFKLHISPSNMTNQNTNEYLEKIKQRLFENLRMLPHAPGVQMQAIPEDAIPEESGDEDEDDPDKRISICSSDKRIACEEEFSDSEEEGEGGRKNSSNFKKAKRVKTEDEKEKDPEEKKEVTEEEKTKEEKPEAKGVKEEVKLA

Structure (SMILES)	IC50 (HDAC11)	IC50 (HDAC1 [1])	IC50 (HDAC3)	inhibitory activity against HDAC11 (in words) (HDAC11)	IC50 for HDAC1 (in words) (HDAC1 [2])
CCCCCCCCCNNC(=O)c1ccc(CNC(=O)c2ccccc2)cc1 [A6]	504 ± 45.5 nM	> 10000 nM	2050 ± 39.5 nM		
CCCCCCNNC(=O)c1ccc(CNC(=O)c2ccccc2)cc1 [A3]	> 10000 nM	34.5 ± 3.15 nM	6.79 ± 0.19 nM		
CCCCCCCCNNC(=O)c1ccc(CNC(=O)c2ccccc2)cc1 [A5]	942 ± 94.1 nM	2050 ± 27.5 nM	501 ± 2.4 nM		
CCCCNNC(=O)c1ccc(CNC(=O)c2ccccc2)cc1 [A1]	3250 ± 241 nM	20.5 ± 1.4 nM		moderate inhibitory activity	low nanomolar
CCCCCCCCCCCCNNC(=O)c1ccc(CNC(=O)c2ccccc2)cc1 [A9]	132 ± 4.29 nM	> 10000 nM	> 10000 nM		
CCCCCCCCCCNNC(=O)c1ccc(CNC(=O)c2ccccc2)cc1 [A7]	416 ± 41.1 nM	> 10000 nM	> 10000 nM		
CCCCCNNC(=O)c1ccc(CNC(=O)c2ccccc2)cc1 [A2]	6740 ± 324 nM	45.6 ± 2.36 nM		moderate inhibitory activity	low nanomolar
CCCCCCCNNC(=O)c1ccc(CNC(=O)c2ccccc2)cc1 [A4]	3310 ± 157 nM	415 ± 153 nM	6360 ± 324 nM		

The next lines start with results.

IC50 (HDAC11)	IC50 (HDAC1 [1])	IC50 (HDAC3)	inhibitory activity against HDAC11 (in words) (HDAC11)	Structure (SMILES)	IC50 for HDAC1 (in words) (HDAC1 [2])
243 ± 12.3 nM	> 10000 nM	> 10000 nM		CCCCCCCCCCCCCCCCNNC(=O)c1cccs1 [SIS17, reference compound]	
1550 ± 116 nM				COCCCCCCCCCNNC(=O)c1ccc(CNC(=O)c2ccccc2)cc1 [B2]	
494 ± 41.9 nM				CCOCCCCCCCCNNC(=O)c1ccc(CNC(=O)c2ccccc2)cc1 [B3]	
2440 ± 223 nM				COCCOCCCCCCNNC(=O)c1ccc(CNC(=O)c2ccccc2)cc1 [B7]	
257 ± 12.1 nM				CCCOCCCCCCCNNC(=O)c1ccc(CNC(=O)c2ccccc2)cc1 [B4]	
664 ± 64.9 nM				O=C(NCc1ccc(C(=O)NNCCCCCCCCCCO)cc1)c1ccccc1 [B1]	
357 ± 16.5 nM				CCCCOCCCCCCNNC(=O)c1ccc(CNC(=O)c2ccccc2)cc1 [B5]	
801 ± 49.5 nM				CCOCCOCCCCCNNC(=O)c1ccc(CNC(=O)c2ccccc2)cc1 [B8]	
